In patent US10184933B2, “Compositions, systems and methods for gene expression noise drug screening and uses thereof” (priority 2013, dated 2019):
Entries after “also recorded” stand apart in the source; their conditions may differ. Counter-ions that a name gives are not always drawn. Like-named read-outs stand apart in the source and are kept apart here.

Columns and labels:
HIV-1 LTR promoter [1] = type: cell-based
HIV-1 LTR promoter [2] = assay: Single-cell time-lapse fluorescence microscopy of polyclonal LTR d2GFP cell population; type: cell-based
Source text: Lentiviral vectors expressing the LTR-GFP cassette in the absence of Tat were described (Weinberger et al., 2005, Cell, 122(2):169-182) and used to infect 5×10^5 Jurkat cells at a multiplicity of infection <0.1, resulting in 25,000-50,000 infected cells each presumably with a unique integration site. Cells were then sorted by FACS to isolate green fluorescent protein-labeled (GFP+) cells and fluorescently imaged on glass-bottom dishes in RPMI 1640 with 10% fetal calf serum and 1% penicillin-streptomycin and 10 μM of VM at t=0 h for the population which was pre-treated with VM 1 day before imaging. […] For each trajectory, noise autocorrelation [Φ(t)] and magnitude (CV^2) were calculated using an established noise-processing algorithm (Weinberger at al., 2008, Nature Genetics, 40(4):466-470; Dar at al., 2012, Proc Natl Acad Sci USA 109:17454-17459; Boehm et al., 2013, Cell Cycle 12:452-462).
To assess whether identified VMs are specific to the integration site of the drug screen target, a polyclonal LTR d2GFP population was treated with select VM hits and imaged using time-lapse single cell fluorescence microscopy (Dar et al., 2012, Proc Natl Acad Sci USA 109:17454-17459; Boehm et al., 2013, Cell Cycle 12:452-462) (FIG. 6C). […]

[3] = test system: latent HIV-1 in primary human CD4+ T cells; type: cell-based
Source text: (§1) Details on the Siliciano T-Cell model of HIV-1 latency can be found in Yang et al., 2009, J Clin Invest 119:3473-3486. Details on the Planelles T-Cell model of HIV-1 latency can be found in Bosque and Planelles, 2009, Blood 113:58-65.
(§2) To test if VMs enhance reactivation in a primary cell model of latency 14 VMs were selected from the 85 VMs initially screened on the JLat cell line. […] Two separate primary cell models of latency were screened (Bosque and Planelles, 2009, Blood 113:58-65; Yang et al., 2009, J Clin Invest 119:3473-3486) The Siliciano model of latency is generated using primary human CD4+ T cells which are transduced with Bcl-2 to allow long-term in vitro survival. The Bcl-2^+ cells are activated with -CD3/-CD28 antibody and infected with a GFP expressing virus. Cells remain in culture for over a month to allow transition into resting memory states and then sorted for GFP-cells after which the sorted cells are the latent pool of cells tested for reactivation. […] Reactivation experiments were designed with a positive control (PMA with Ionomycin or -CD3/-CD28 activation) as well as media only or VM treatment measurements.

[4] = test system: latent HIV-1 in JLat 8.6 cells; type: cell-based
[5] = test system: latent HIV-1 in primary cells of two donors; type: cell-based
Source text: as §1, §2

[6] = test system: latent HIV-1 in primary T-cells; type: cell-based
Experimental: FIG. 18A schematically depicts a primary T-cell model of HIV-1 latency 48 h after reactivation with PMA or a subset of noise enhancers (% reactivation percentage is calculated relative to maximal reactivation potential). […] The horizontal line represents the mean calculated Bliss Independence Score (C. I. Bliss, Ann. Appl. Biol. 26:585-615 (1939)), a measure for strict additivity for all of the compounds. FIG. 18B schematically depicts stochastic simulations of noise suppression, which reduces noise without altering the mean expression level but limits reactivation induced by an activator. […] Details are described, e.g., in Example 10.

JLat cell line 8.6 = test system: JLat cell line 8.6
Experimental: FIG. 17 schematically depicts reactivation percentage versus drug toxicity for conventional reactivation cocktails (e.g. TNF+Prostratin, SAHA+Prostratin, SAHA+TNF+Prostratin) and 21 cocktails containing noise-enhancer compounds in combination with TNF+Prostratin. Controls: TNF alone, Prostratin alone, and Untreated, as indicated. Measurements were performed in duplicate on JLat cell line 8.6 after 48 h treatment. […] Details are described, e.g., in Example 9.
(§3) To test whether reactivation could be further optimized, the doses of noise enhancers and activators were varied (FIG. 14).

[7] = test system: latent HIV-1 in JLat cell lines; assay: Dose response of reactivation in JLat cell lines (FIG. 14); type: cell-based; details: with TNF or Prostratin
Experimental: FIGS. 14A and 14B schematically depict dose response curves for compounds V14 and V82 with TNF and Prostratin. FIG. 14A schematically depicts V14 dose response curves with four different concentrations of TNF (left) and five different concentrations of Prostratin (right) at 24 and 48 hours. […] Details are described, e.g., in Example 9.
as §3

[8] = Pharmakon 1600 library, 10 uM, 24 hours, FIG. 10

SMILES: CC(=O)O[C@@]12CO[C@@H]1C[C@H](O)[C@@]1(C)C(=O)[C@H](O)C3=C(C)[C@@H](OC(=O)[C@H](O)[C@@H](NC(=O)OC(C)(C)C)c4ccccc4)C[C@@](O)([C@@H](OC(=O)c4ccccc4)[C@H]21)C3(C)C [V1, docetaxel]
- identified as variability enhancer (VE) in noise screen (HIV-1 LTR promoter [1]; [8]): variability enhancers
- high frequency noise magnitude (HF-CV^2) versus untreated polyclonal population (HIV-1 LTR promoter [2]; 10 μM, 24 hour pretreatment, tracked 12 hours, ~500 cells): increased high frequency noise magnitude; also recorded: increased noise magnitude trends above the untreated population

SMILES: C[C@]12CC[C@@H]3c4ccc(OC(=O)N(CCCl)CCCl)cc4CC[C@H]3[C@@H]1CC[C@@H]2O [V3, estramustine]
- synergy with activators [3]: synergized with either PMA, prostratin or bryostatin; also recorded: appear to synergize with all three activators
- synergy in reactivation of HIV-1 latency [4]: synergized
- identified as variability enhancer (VE) in noise screen (HIV-1 LTR promoter [1]; [8]): variability enhancers

SMILES: O=C(O)Cc1ccc(-c2ccccc2)cc1 [V4, felbinac]
- synergy with bryostatin [5]: synergized with bryostatin
- synergy in reactivation of HIV-1 latency [4]: synergized
- identified as variability enhancer (VE) in noise screen (HIV-1 LTR promoter [1]; [8]): variability enhancers

SMILES: COC(=O)Nc1nc2ccc(C(=O)c3ccccc3)cc2[nH]1 [V7, mebendazole]
- synergy in reactivation of HIV-1 latency [4]: synergized
- identified as variability enhancer (VE) in noise screen (HIV-1 LTR promoter [1]; [8]): variability enhancers
- synergy with PMA [6]: reactivating half of the remaining cells that PMA alone did not reactivate
- increased activation with PMA ([6]; 48 h, relative to maximal reactivation potential): ~20%

SMILES: C[C@]12C=CC(=O)N[C@@H]1CC[C@@H]1[C@@H]2CC[C@]2(C)[C@@H](C(=O)Nc3cc(C(F)(F)F)ccc3C(F)(F)F)CC[C@@H]12 [V10, dutasteride]
- synergy with activators [3]: synergized with either PMA, prostratin or bryostatin; also recorded: appear to synergize with all three activators
- synergy in reactivation of HIV-1 latency [4]: synergized
- identified as variability enhancer (VE) in noise screen (HIV-1 LTR promoter [1]): variability enhancers

SMILES: O=C(O)COCCN1CCN(C(c2ccccc2)c2ccc(Cl)cc2)CC1 (stereo not shown) [V11, cetirizine hydrochloride]
- concentration at peak in HIV-1 reactivation [4]: 25 µM
- synergy in reactivation of HIV-1 latency [4]: synergized
- reactivation relative to Prostratin alone ([4]; hydrochloride): about twice; also recorded: about three times
- reactivation relative to TNFα alone ([4]; hydrochloride): about twice; also recorded: about three times
- reactivation relative to TNFα or Prostratin alone (dose response surface) ([4]; hydrochloride): more than three times; also recorded: almost double; also recorded: greater reactivation
- reactivation when combined with TNFα and Prostratin ([4]; hydrochloride): further increase reactivation; also recorded: increased activation
- gene expression noise versus compound concentration (HIV-1 LTR promoter [1]): increasing trend in gene expression noise
- identified as variability enhancer (VE) in noise screen (HIV-1 LTR promoter [1]): variability enhancers
- viability when combined with TNFα and Prostratin (JLat cell line 8.6): without significant reduction in viability
- high frequency noise magnitude (HF-CV^2) versus untreated polyclonal population (HIV-1 LTR promoter [2]; hydrochloride): increased high frequency noise magnitude; also recorded: increased noise magnitude trends above the untreated population

SMILES: C[C@@H]1CC[C@H]2[C@@H](C)C(=O)O[C@@H]3O[C@@]4(C)CC[C@@H]1[C@]32OO4 [V14, artemisinin]
- synergy with bryostatin [5]: synergized with bryostatin
- concentration at peak activation ([7]; 24 and 48 hours): about 10 μM
- synergy in reactivation of HIV-1 latency [4]: synergized
- reactivation when combined with TNFα and Prostratin ([4]; VM + TNFα + Prostratin, 48 hours): further increase reactivation; also recorded: increased activation
- identified as variability enhancer (VE) in noise screen (HIV-1 LTR promoter [1]; [8]): variability enhancers
- viability when combined with TNFα and Prostratin (JLat cell line 8.6): without significant reduction in viability

SMILES: O=c1[nH]c(=O)n([C@H]2C[C@H](O)[C@@H](CO)O2)cc1I [V82, idoxuridine]
- concentration at maximal reactivation ([7]; 48 hours, two JLat cell lines): 50 µM
- synergy in reactivation of HIV-1 latency [4]: synergized
- identified as variability enhancer (VE) in noise screen (HIV-1 LTR promoter [1]; [8]): variability enhancers
